Assay results taken from patent US5747535A, “Selective thrombin inhibitors” (priority 1995, dated 1998).
Read-outs that look alike come from different tables or passages of the source.

Columns and labels:
[1] = Test 2: Pharmacokinetic test in rats; format: in vivo, rat; conditions: rats
Procedure: (§1) Male rats and dogs were fasted for 24 hours and used as the experimental animals. […] Bloods were collected from the animals at given time intervals and then immediately mixed with methanol and zinc sulfate. Finally, the upper layer of the mixture was quantitatively analyzed at ultraviolet wavelength of 231 nm to measure the drug concentration in blood by HPLC.

[2] = Test 2: Pharmacokinetic test in dogs; format: in vivo, dog; conditions: for concentration at 2 min / concentration at 5 min / concentration at 10 min / concentration at 20 min / concentration at 0.5 h / concentration at 0.75 h / concentration at 1 h / concentration at 1.5 h / concentration at 2 h / concentration at 4 h / concentration at 5 h / concentration at 6 h / concentration at 3 h: 10 mg/kg; for concentration at 0.5 h: 30 min; for concentration at 0.75 h: 45 min; for concentration at 1 h: 60 min; for concentration at 1.5 h: 90 min; for concentration at 2 h: 120 min; for concentration at 4 h: 240 min; for concentration at 5 h: 300 min; for concentration at 6 h: 360 min; for concentration at 3 h: 180 min; for bioavailability: oral route
Procedure: as §1

[3] = biological target: bovine thrombin (Bos taurus, UniProt P00735); assay: biochemical;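 further: bovine thrombin cleaving the chromogenic substrate Chromozym TH, with para-nitroaniline release tracked as absorbance change over time to give initial rates, in Tris buffer at pH 7.8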
Text: The thrombin inhibitory effect of the compound of formula (I) according to the present invention can be identified by determination of a dissociation constant Ki represented by the following equation according to the known method described in literature [see, Methods in enzymology V. 80,p341-361;Biochemistry 27,p2144-2151 (1988)].
The dissociation constant Ki denotes the degree of dissociation of the enzyme-thrombin inhibitor complex. […] Such dissociation constant can be determined by reacting thrombin with a certain substrate which develops a color when it is hydrolyzed by the action of thrombin, and then measuring the degree of color development as a function of time by means of spectrophotometry.
Chromozym TH is hydrolyzed by thrombin to produce yellow para-nitroaniline. Accordingly, the amount of yellow para-nitroaniline thus produced can be measured as the change of absorbance in the course of time to determine the thrombin inhibitory activity of the compound according to the present invention. That is, the enzyme activity can be determined from the rate of change in absorbance and then can be directly connected with the ability of the thrombin inhibitor to inhibit the enzyme activity (see, Methods in Enzymology, V. 80,p341-361,Biochemistry 27, p2144-2151, 1988).
The ability of the compound according to the present invention to inhibit the thrombin activity was determined as described in the following.
1160 μl of 0.1M tris buffered solution (pH 7.8) containing 150 mM NaCl and 0.1% PEG 8000 (polyethylene glycol, molecular weight about 8,000) was added to a 1.5 ml cuvette. Chromozym TH was dissolved in dimethylsulfoxide(DMSO) in the concentration of 10mM and the resulting solution was diluted with the said tris buffered solution to the concentration of 0.1 mM, which was then used as the substrate solution. 225 μl of 0.1 mM substrate solution thus prepared was added to the cuvette. The inhibitor solution was prepared by dissolving the thrombin inhibitor compound according to the present invention in dimethylsulfoxide in the concentration of 10 mg/ml and then diluting the resulting solution with the said tris buffered solution to the concentration of 0.1 mg/ml, 0.01 mg/ml, 0.001 mg/ml and 0.0001 mg/ml. The resulting inhibitor solution was taken in an amount corresponding to 0 to 10 μg as the inhibitor and then diluted with tris buffered solution to make the total volume of 100 μl which was added to the cuvette.
15 μl of bovine thrombin solution dissolved in above tris buffered solution in the concentration of 0.1 mg/ml was added to the cuvette to initiate the enzyme hydrolysis reaction. The amount of para-nitroaniline produced for 2 minutes from the moment the enzyme is added was monitored by measuring the absorbance at 381 nm. The continuous spectrum of absorbance to reaction time was depicted. The same experiments were conducted for various concentration of the inhibitor to obtain the continuous spectrum.
In each spectrum, the initial velocity Vi was obtained from the slope within initial 30 seconds of the reaction time and then a graph for the reciprocal value of initial velocity(1/Vi) to the inhibitor concentration was depicted. From the graph, the primary equation satisfying the points depicted thereon was obtained and then the value Ki was calculated from the x intercept of the primary equation using the enzyme reaction equation.
The velocity constant Ks was obtained using the same solution in the same concentration as in determination of the value Ki but using the following experimental procedure.

[4] = dog, blood, iv, Dog-1, i.v. 10 mg/kg, read-out: Blood concentration
[5] = dog, blood, iv, Dog-2, i.v. 10 mg/kg, read-out: Blood concentration
[6] = dog, blood, iv, dogs, i.v. 10 mg/kg, read-out: Blood concentration, Average(+error)
[7] = dog, blood, po, Dog-1, oral 10 mg/kg, read-out: Blood concentration
[8] = dog, blood, po, Dog-2, oral 10 mg/kg, read-out: Blood concentration
[9] = dog, blood, po, dogs, oral 10 mg/kg, read-out: Blood concentration, Average(+error)

CN(C(=O)[C@H](Cc1ccc(C(=N)NN)cc1)NS(=O)(=O)c1ccc2ccccc2c1)C1CCCC1 [Example 1, (S)-N-cyclopentyl-N-methyl-3-(4-amidrazonophenyl)-2-(2-naphthylsulfonylamino)propionamide]
half-life ([1]; rat, blood, read-out: Elimination Half-life, Average + (error)): 0.783 h
distribution and disappearance after intravenous injection ([1]; intravenous): rapidly distributed and then slowly disappeared
bioavailability ([1]; oral route): 15 (2) %
concentration at 2 min [2, 4]: 29100 ng/mL
concentration at 5 min [2, 4]: 9080 ng/mL
concentration at 10 min [2, 4]: 5940 ng/mL
concentration at 20 min [2, 4]: 3610 ng/mL
concentration at 0.5 h [2, 4]: 2430 ng/mL
concentration at 0.75 h [2, 4]: 1940 ng/mL
concentration at 1 h [2, 4]: 1470 ng/mL
concentration at 1.5 h [2, 4]: 1270 ng/mL
concentration at 2 h [2, 4]: 1090 ng/mL
concentration at 4 h [2, 4]: 544 ng/mL
concentration at 5 h [2, 4]: 315 ng/mL
concentration at 6 h [2, 4]: 317 ng/mL
concentration at 2 min [2, 5]: 36600 ng/mL
concentration at 5 min [2, 5]: 5230 ng/mL
concentration at 10 min [2, 5]: 3280 ng/mL
concentration at 20 min [2, 5]: 1800 ng/mL
concentration at 0.5 h [2, 5]: 1340 ng/mL
concentration at 0.75 h [2, 5]: 859 ng/mL
concentration at 1 h [2, 5]: 690 ng/mL
concentration at 1.5 h [2, 5]: 501 ng/mL
concentration at 2 h [2, 5]: 377 ng/mL
concentration at 4 h [2, 5]: 129 ng/mL
concentration at 5 h [2, 5]: 107 ng/mL
concentration at 6 h [2, 5]: 92 ng/mL
concentration at 2 min [2, 6]: 32900 ng/mL
concentration at 5 min [2, 6]: 7160 ng/mL
concentration at 10 min [2, 6]: 4610 ng/mL
concentration at 20 min [2, 6]: 2710 ng/mL
concentration at 0.5 h [2, 6]: 1880 ng/mL
concentration at 0.75 h [2, 6]: 1400 ng/mL
concentration at 1 h [2, 6]: 1080 ng/mL
concentration at 1.5 h [2, 6]: 885 ng/mL
concentration at 2 h [2, 6]: 733 ng/mL
concentration at 4 h [2, 6]: 337 ng/mL
concentration at 5 h [2, 6]: 211 ng/mL
concentration at 6 h [2, 6]: 204 ng/mL
concentration at 10 min [2, 7]: 1390 ng/mL
concentration at 20 min [2, 7]: 2080 ng/mL
concentration at 0.5 h [2, 7]: 1940 ng/mL
concentration at 0.75 h [2, 7]: 1890 ng/mL
concentration at 1 h [2, 7]: 2220 ng/mL
concentration at 1.5 h [2, 7]: 1270 ng/mL
concentration at 2 h [2, 7]: 774 ng/mL
concentration at 3 h [2, 7]: 663 ng/mL
concentration at 4 h [2, 7]: 812 ng/mL
concentration at 5 h [2, 7]: 51 ng/mL
concentration at 6 h [2, 7]: 118 ng/mL
concentration at 10 min [2, 8]: 15 ng/mL
concentration at 20 min [2, 8]: 17 ng/mL
concentration at 0.5 h [2, 8]: 105 ng/mL
concentration at 0.75 h [2, 8]: 558 ng/mL
concentration at 1 h [2, 8]: 1310 ng/mL
concentration at 1.5 h [2, 8]: 935 ng/mL
concentration at 2 h [2, 8]: 730 ng/mL
concentration at 3 h [2, 8]: 616 ng/mL
concentration at 4 h [2, 8]: 318 ng/mL
concentration at 5 h [2, 8]: 222 ng/mL
concentration at 6 h [2, 8]: 153 ng/mL
concentration at 10 min [2, 9]: 702 ng/mL
concentration at 20 min [2, 9]: 1050 ng/mL
concentration at 0.5 h [2, 9]: 1020 ng/mL
concentration at 0.75 h [2, 9]: 1220 ng/mL
concentration at 1 h [2, 9]: 1760 ng/mL
concentration at 1.5 h [2, 9]: 1100 ng/mL
concentration at 2 h [2, 9]: 752 ng/mL
concentration at 3 h [2, 9]: 640 ng/mL
concentration at 4 h [2, 9]: 565 ng/mL
concentration at 5 h [2, 9]: 136 ng/mL
concentration at 6 h [2, 9]: 135 ng/mL
bioavailability ([2]; dog, blood, dogs, read-out: Bioavailability): 61%
half-life ([2]; dog, blood, dogs, read-out: Elimination Half-life, Average + (error)): 1.63 h
elimination half-life in dogs compared with argatroban in human being ([2]; dogs vs argatroban (40 minutes) in human being): twice longer or more than that of commercially available argatroban
elimination half-life in dogs compared with rats ([2]; dogs vs rats, intravenous): twice longer or more than that in rats
distribution and disappearance after intravenous injection ([2]; dogs, intravenous): rapidly distributed and then slowly disappeared
bioavailability ([2]; dogs): 61 (15) %
pharmacokinetic characteristics compared with argatroban ([2]; oral absorption and elimination half-life): better pharmacokinetic characteristics than argatroban
Ki [3]: 3.8 nM
